Reference: patent publication US20240166602A1, “SUBSTITUTED DIARYL COMPOUND AS WELL AS PREPARATION METHOD AND APPLICATION THEREOF” (SHANDONG FIRST MEDICAL UNIV & SHANDONG ACADEMY OF MEDICAL …, priority 2021, published 2024)

Legend:
Format in all cases: cell-based
[1] = tested on: human lung cancer (A549) cells; experiment: MTT tumor cell growth inhibition, human lung cancer (A549); conditions: Homo sapiens; A549, 48 h culture, MTT method; read-out: IC50 value of target compound against cancer cell proliferation, A549
Experimental: (§1) Dissolve CHJ compound series with dimethyl sultbxide (DMSO, final concentration 0.4%), and use RPMI-1640 culture medium containing 15% fetal calf serum to prepare 1 mg/mL solution for future use. During drug administration in groups, use the culture medium to dilute it to the concentration needed.
(§2) Cell lines: human lung cancer (A549), Inman ovarian cancer (SKOV3), human melanoma (A375) and human colon cancer (LOVO) cell lines, all purchased from the Cell Bank of the Chinese Academy of Sciences, DMEM containing 15% fetal bovine serum (High Glucose) culture medium, placed in a 37° C., 5% CO2 incubator.
(§3) MTT is an oxidizing yellow dye with the chemical name of 3-(4,5-dimethyl-2-thiazolyl)-2,5-diphenyl-2-H-tetrazoliumbromide tetrazole bromide. The MMT method, also known as the MTT colorimetric method, can test the survival and growth of cells. The method is simple and easily accessible and often used to screet the substance with cytotoxic activity. The basic principle of testing, is that succinodehydrogenase can reduce exogenous MIT so that MTT is reduced to blueviolet crystal Formazan insoluble to water. The crystal deposits in cells. The succinodehydrogenase exists in the mitochondria of living cells, not in the dead cells. Therefore, the chromogenic reaction can only take place in living cells. Then, dissolve the blueviolet crystal Formazan contained in cells with dimethyl sulfoxide (DMSO), and measure its absorbancy with microplate reader so that the count of living cells is reflected indirectly. Within the scope of certain cell count, the amount of blueviolet crystal Formazan formed is positively correlated to the count of living cells.
(§4) Human lung cancer (A549), human ovarian cancer (SKOV3), human melanoma (A375) and human colon cancer (LOVO) ceilsare all adherent. Based on the growth rate of tumor cells, wash the adherent tumor cells in the logarithmic phase and digest them in 0.25% EDTA pancreatic enzyme. Adjust the cell count to 1×10^5/mL and inoculate the cells in 96-pore plate, each pore containing 100 μL. Culture the cells in the 37° C. CO2 incubator, and administer the drug 24 h later. Add pharmaceutical (CJH compound series) of different concentrations to the administration group. Set up 5 dosage groups for each pharmaceutical, respectively 100, 10, 1, 0.1, 0.01 μmol/L. Set up three complex pores for each concentration. Set up blank control, DMSO (0.8%) solvent control and cis-platinum positive control. After 48 h of culture in the 37 ° C. incubator containing 5% CO2, measure the OD value through MTT method and calculate the cell inhibition ratio.
(§5) After 48 h of culture of human lung cancer (A549), human ovarian cancer (SKOV3). human melanoma (A375) and human colon cancer (LOVO) cells, stop it and add 10 μL 0.5% MTT solution to each pore. Place it in the CO2 incubator for 4 h. Remove the liquid from each pore, respectively add 0.2 mL DMSO solution, and oscillate it adequately on the table concentrator under low frequency so that the blueviolet crystal Formazan is dissolved adequately. Place it in the microplate reader and record the OD value at the wavelength of […]. Calculate the average OD value of three parallel pores of different concentrations, and calculate the cell inhibition ratio and IC50 of each tested pharmaceutical under different concentrations based on the average.
(§6) Inhibition ratio (%)=[1-tested sample OD/negative control group OD]×100%.

[2] = tested on: human ovarian cancer (SKOV3) cells; experiment: MTT tumor cell growth inhibition, human ovarian cancer (SKOV3); conditions: Homo sapiens, SK-OV-3; SKOV3, 48 h culture, MTT method; read-out: IC50 value of target compound against cancer cell proliferation, SKOV3
Experimental: as §1, §2, §3, §4, §5, §6

[3] = tested on: human melanoma (A375) cells; experiment: MTT tumor cell growth inhibition, human melanoma (A375); conditions: Homo sapiens, A-375; A375, 48 h culture, MTT method; read-out: IC50 value of target compound against cancer cell proliferation, A375
Experimental: as §1, §2, §3, §4, §5, §6

[4] = tested on: human colon cancer (LOVO) cells; experiment: MTT tumor cell growth inhibition, human colon cancer (LOVO); conditions: Homo sapiens, 48 h culture, MTT method, read-out: IC50 value of target compound against cancer cell proliferation, LOVO
Experimental: as §1, §2, §3, §4, §5, §6

| SMILES | IC50 [1] [µM] | IC50 [2] [µM] | IC50 [3] [µM] | IC50 [4] [µM] |
| --- | --- | --- | --- | --- |
| COc1cc(CN(C)CC(O)COc2c(Cl)cccc2Cl)ccc1OCCN1CCC(C)CC1 (centres unmarked) [CHJ02029, 1-(2,6-dichlorophenoxy)-3-((3-methoxy-4-(2-(4-methylpiperidin-1-yl)ethoxy)benzyl) (methyl)amino)propan-2-ol] | 3.55 ± 0.06 | 6.3 ± 0.16 | 2.43 ± 0.12 | 1.87 ± 0.02 |
| COc1cc(CN(C)CC(O)COc2ccccc2C(C)C)ccc1OCCN1CCC(C)CC1 (centres unmarked) [CHJ03004, 1(2-isopropylphenoxy)-3-((3-methoxy-4-(2-(4-methylpiperidin-1yl)ethoxy)benzyl) (methyl)amino)propan-2-ol] | 2.1 ± 1.25 | 6.19 ± 0.25 | 0.72 ± 0.8 | 2.54 ± 0.1 |
| COc1cc(CN(C)CC(O)COc2ccc(Br)cc2)ccc1OCCN1CCC(C)CC1 (centres unmarked) [CHJ03014] | 1.09 ± 0.06 | 6.19 ± 0.62 | – | 0.53 ± 0.15 |
| COc1cc(CN(C)CC(O)COc2cccc(C(C)C)c2)ccc1OCCN1CCC(C)CC1 (centres unmarked) [CHJ03015, 1-(3-isopropylphenoxy)-3-((3-methoxy-4-(2-(4-methylpiperidin-1-yl)ethoxy)benzyl) (methyl)amino)propan-2-ol] | 1.03 ± 0.13 | 4.47 ± 1.62 | – | 0.55 ± 0.21 |
| COc1cccc(OCC(O)CN(C)Cc2ccc(OCCN3CCC(C)CC3)c(OC)c2)c1 (centres unmarked) [CHJ03017, 1-((3-methoxy-4-(2-(4-methylpiperidin-1-yl)ethoxy)benzyl)(methyl)amino)-3-(3-methoxyphenoxy)propan2-ol] | 17.2 ± 0.79 | 6.21 ± 1.04 | 8.68 ± 0.11 | 2.44 ± 0.03 |
| COc1cc(CN(C)CC(O)COc2ccc(C)c(Br)c2)ccc1OCCN1CCC(C)CC1 (centres unmarked) [CHJ04010, 1-(3-bromo-4-methylphenoxy)-3-((3-methoxy-4-(2-(4-methylpiperidin-1-yl)ethoxy)benzyl)(methyl)amino)propan-2-ol] | – | 4.96 ± 1.26 | 0.45 ± 0.46 | 2.78 ± 0.23 |
| COc1cc(CN(C)CC(O)COc2cc(F)cc(Br)c2)ccc1OCCN1CCC(C)CC1 (centres unmarked) [CHJ04023] | 5.44 ± 2.54 | 8.03 ± 2.77 | 0.81 ± 0.33 | 3.07 ± 1.62 |
| COc1cc(CN(C)CC(O)COc2ccc(Cl)c(Cl)c2)ccc1OCCN1CCC(C)CC1 (centres unmarked) [CHJ04026, 1-(3,4-dichlophenoxy)-3-((3-methoxy-4-(2-(4-methylpiperidin-1-yl)ethoxy)benzyl) (methyl)amino)propan-2-ol] | 0.97 ± 0.21 | 7.45 ± 2.26 | 1.5 ± 0.06 | 0.82 ± 0.42 |
| COc1cc(CN(C)CC(O)COc2c(Cl)cc(Br)cc2Cl)ccc1OCCN1CCC(C)CC1 (centres unmarked) [CHJ04033, 1-(4-bromo-2,6-dichlorophenoxy)-3-((3-methoxy-4-(2-(4-methylpiperidin-1-yl)ethoxy)benzyl)(methyl)amino)propan-2-ol] | 0.95 ± 0.37 | 6.22 ± 3.05 | 0.92 ± 0.07 | 2.23 ± 1.26 |
| COc1cc(CN(C)CC(O)COc2cc(C(F)(F)F)ccc2Br)ccc1OCCN1CCCC1 (centres unmarked) [CHJ04065, 1-(-bromo-5-(trifluoromethyl)phenoxy)-3-((3-methoxy-4-(2-(pyrrolidin-1-yl)ethoxy)benzyl)(methyl)amino)propan-2-ol] | 25.5 ± 2.11 | 27.1 ± 1.62 | – | 3.14 ± 1.06 |
| COc1cc(CN(C)CC(O)COc2ccccc2OC)ccc1OCCN1CCC(C)CC1 (centres unmarked) [CHJ04086] | – | – | 34.7 ± 3.42 | – |

Next, values leading:

| IC50 [1] [µM] | IC50 [2] [µM] | IC50 [3] [µM] | IC50 [4] [µM] | SMILES |
| --- | --- | --- | --- | --- |
| 0.52 ± 0.23 | 0.62 ± 0.08 | 0.62 ± 0.04 | 1.25 ± 0.03 | COc1cc(CN(C)CC(O)COc2ccc(Br)c(C(F)(F)F)c2)ccc1OCCN1CCC(C)CC1 (centres unmarked) [CHJ02049, 1-(4-bromo-3-(trifluoromethyl)phenoxy)-3-((3-methoxy-4-(2-(4-methylpiperidin-1-yl)ethoxy)benzyl)(methyl)amino)propan-2-ol] |
| 1.09 ± 1.55 | 4.04 ± 0.06 | 1.87 ± 0.07 | 3.88 ± 1.8 | COc1cc(CN(C)CC(O)COc2cc(C(F)(F)F)ccc2C(F)(F)F)ccc1OCCN1CCC(C)CC1 (centres unmarked) [CHJ02050, 1-(2,5-bis(trifluoromethyl)phenoxy)-3-((3-methoxy-4-(2-(4-methylpiperidin-1-yl)ethoxy)benzyl)(methyl)amino)propan-2-ol] |
| 1.3 ± 1.03 | 2.48 | 1.95 ± 0.33 | 1.26 ± 0.53 | COc1cc(CN(C)CC(O)COc2cccc(Br)c2)ccc1OCCN1CCC(C)CC1 (centres unmarked) [CHJ03001, 1-(3-bromophenoxy)-3-((3-methoxy-4-(2-(4-methylpiperidin-1-yl)ethoxy)benzyl) (methyl)amino)propan-2-ol] |
| 6.08 ± 0.9 | 3 ± 0.99 | 5.95 ± 0.42 | 0.7 ± 0.26 | COc1cc(CN(C)CC(O)COc2ccccc2Br)ccc1OCCN1CCC(C)CC1 (centres unmarked) [CHJ03003, 1-(2-bromophenoxy)-3-((3-methoxy-4-(2-(4-methylpiperidin-1-yl)ethoxy)benzyl) (methyl)amino)propan-2-ol] |
| 15.6 ± 0.16 | 3.99 ± 0.21 | 5.6 ± 0.81 | 6.66 ± 0.11 | COc1cc(CN(C)CC(O)COc2ccc(Br)cc2OC)ccc1OCCN1CCC(C)CC1 (centres unmarked) [CHJ03005, 1-(4-bromo-2-methoxypbenoxy)-3-((3-methoxy-4-(2-(4-methylpiperidin-1-yl)ethoxy)benzyl)(methyl)amino)propan-2-ol] |
| 18.8 ± 1.06 | 1.79 ± 0.23 | 3.13 ± 0.06 | 1.72 ± 1.58 | COc1cc(CN(C)CC(O)COc2cc(Br)ccc2F)ccc1OCCN1CCC(C)CC1 (centres unmarked) [CHJ03018] |
| 2.5 ± 1.32 | 2.9 ± 0.19 | 0.54 ± 0.26 | 0.95 ± 0.41 | COc1cc(CN(C)CC(O)COc2ccc(Cl)c(Br)c2)ccc1OCCN1CCC(C)CC1 (centres unmarked) [CHJ03043, 1-(3-bromo-4-chlorophenoxy)-3-((3-methoxy-4-(2-(4-methylpiperidia-1-yl)ethoxy)benzyl)(methyl)amino)propan-2-ol] |
| 4.05 ± 1.12 | 2.41 ± 1.03 | 0.48 ± 0.28 | 1.01 ± 0.08 | COc1cc(CN(C)CC(O)COc2cc(C(F)(F)F)ccc2Br)ccc1OCCN1CCC(C)CC1 (centres unmarked) [CHJ04011] |
| 6.38 ± 0.07 | 4.34 ± 0.32 | 1.24 ± 1.01 | 2.12 ± 0.04 | COc1cc(CN(C)CC(O)COc2cc(Cl)cc(Cl)c2)ccc1OCCN1CCC(C)CC1 (centres unmarked) [CHJ04012, 1-(3,5-dichlorophenoxy)-3-((3-methoxy-4-(2-(4-methylpiperidin-1-yl)ethoxy)benzyl) (methyl)amino)propan-2-ol] |
| 1.38 ± 1.14 | 3.4 ± 1.17 | 1.6 ± 0.92 | 3.83 ± 1.8 | COc1cc(CN(C)CC(O)COc2ccc(F)c(Br)c2)ccc1OCCN1CCC(C)CC1 (centres unmarked) [CHJ04020, 1-(3-bromo-4-fluorophenoxy)-3-((3-methoxy-4-(2-(4-methylpiperidin-1-yl)ethoxy)benzyl)(methyl)amino)propan-2-ol] |
| 5.45 ± 1.03 | 1.37 ± 0.34 | 0.98 ± 0.76 | 18.6 ± 3.22 | COc1cc(CN(C)CC(O)COc2cccc(Cl)c2)ccc1OCCN1CCC(C)CC1 (centres unmarked) [CHJ04024] |
| 4.21 ± 2.24 | 3.32 ± 1.02 | 2.34 ± 1.63 | 2.55 ± 1.65 | COc1cc(CN(C)CC(O)COc2cccc(C(F)(F)F)c2)ccc1OCCN1CCC(C)CC1 (centres unmarked) [CHJ04025, 1-((3-methoxy-4-(2-(4-methylpiperidin-1-yl)ethoxy)benzyl)(methyl)amino)-3-(3-(trifluoromethyl)phenoxy)propan-2-ol] |
| 6.22 ± 1.34 | 3.02 ± 1.76 | 0.73 ± 0.13 | 2.35 ± 1.04 | COc1cc(CN(C)CC(O)COc2ccccc2I)ccc1OCCN1CCC(C)CC1 (centres unmarked) [CHJ04027] |
